In paper PMC10877577 (ACS Chemical Biology, 2024):
Entries after “also recorded” stand apart in the source; their conditions may differ.

Assays:
aMinoC1-peptide complex = assay: SPR rechallenge: small-molecule-driven dissociation of peptide-Fc from immobilized aMinoC1; assay type: binding; conditions: peptide-Fc 100 nM, small molecule 1 μM
Experimental: Binding assays were carried out using 1x HBS-EP+ running buffer. Various concentrations (2.5 μM with 2-fold serial dilutions) of the analyte were injected for 150 s at 30 μL/min with 150 s dissociation time. Glycine-HCl (pH 2.0) was used as the regeneration buffer for the sensor chips. For the rechallenge experiment, aMinoC1 was immobilized on a CM5 sensor chip and CX7C peptide-Fc conjugates were loaded at 100 nM and injected as the analyte for 150 s at 30 μL/min. Following the injection of peptide-Fc, a small molecule at 1 μM was injected for 300 s at 30 μL/min, using dual injection function on a Biacore 8k instrument, to dissociate the peptide-Fc from the aMinoC1-peptide complex. The system was then washed using HBS-P^+ buffer for 300 s at 30 μL/min prior to rechallenge with peptide-Fc. The cycle was repeated three times following a final dissociation step of 300 s. For the alanine scanning experiments, the anti-minocycline antibody (sdAb-muIgG2a-Fc fusion) was captured on a Protein A series S sensor chip, to a density of 3000 RU. […] Glycine-HCl (pH 1.5) was used as the regeneration buffer. In each case, flow cell 1 was used for reference subtraction, and a “0 concentration” sensogram of buffer alone was used as a double reference subtraction to factor for drift. Data analysis was carried out using Biacore T200 Evaluation Software, version 3.0, and Biacore Insight evaluation software. The 1:1 Langmuir binding model was used to calculate the association (ka), dissociation (kd) rate constants, and equilibrium dissociation constant (KD).

[1] = in vivo; cited from earlier work
[2] = system: MinoUniCAR-transduced PBMCs; assay: MinoUniCAR IFN-γ release with EGFR-peptide adaptor; assay type: cell-based, human; conditions: 10 vs 0 μM minocycline
Experimental: (§1) IFN-γ, IL2, and IL12 secretion was measured by collecting the supernatant from the respective cell-based assay and frozen at −20 °C prior to analysis by ELISA. IFN-γ, IL2, and IL12 ELISAs were carried out using the Human IFN-γ ELISA MAX Deluxe kit, Human IL2 ELISA MAX Deluxe kit, and Human IL12 (p70) ELISA MAX Deluxe kit in accordance with the manufacturer’s instructions (BioLegend).
(§2) Transduced PBMCs were stained using RQR8 expression and V5 markers. Cells were then normalized to 50% efficiency by diluting with nontransduced T cells. The tumor-targeting adaptor protein (EGFR sdAb) fused to the GWARA peptide was separately expressed by CHO cell transient transfection and purified by His-tag chromatography. […] IFN-γ secretion was measured as described above.

[3] = system: MinoUniCAR-transduced PBMCs against SupT1-EGFR+ cells; assay: MinoUniCAR cytotoxicity with EGFR-peptide adaptor; assay type: cell-based, human; conditions: 10 μM minocycline, 24 h, 1:2 E/T
Experimental: Transduced CAR T cells were determined by staining for the transduction marker RQR8 and normalized by the addition of nontransduced T cells. Effector cells were cocultured with 5.0 × 10^4 number of target cells (SupT1-NT, SupT1-EGFR+, SKOV3-mKate) to achieve the desired effector cell to target ratio. Where appropriate, minocycline was supplemented as a part of the culture conditions. Cocultures were incubated for 24–72 h at 37 °C and 5% CO2. After incubation, plates were centrifuged at 400g for 5 min, and the supernatant containing secreted cytokines was collected for cytokine analysis. Cells were stained with anti-hCD34-APC and anti-CD3-PeCy7 to differentiate effector T cells and target cells. Cells were washed with 300 μL o PBS and stained with SYTOX Blue Dead Cell Stain dye. The percentage of target cell survival was measured relative to the number of live target cells cocultured with nonspecific CAR T cells or nontransduced PBMCs.
as §2

[4] = system: GWARA-flexi-IL12 secretion from transduced PBMCs; assay: IL12 secretion assay (KDEL retention system); assay type: cell-based, human; conditions: minocycline up to 2.5 μM
Experimental: as §1
Transduced PBMCs were stained for the independent HA expression marker by using an anti-HA-PE antibody to determine transduction efficiency. Cells were normalized to 60% using nontransduced T cells prior to assay set up. For the assay set up, 0.5 × 10^4 transduced cells were cultured in RPMI (RPMI-1640) supplemented with 10% fetal bovine serum (FBS), 2 mM GlutaMAX, and IL2 at a concentration of 100 UI/mL. […] IL12 ELISA was carried out following manufacturer’s instructions (BioLegend, 431704).

[5] = system: SupT1 GWARA-CD8stk-CD28TM and SupT1 aMinoC1-CD8stk-CD28TM cells; assay: Cell–cell binding assay (aggregate formation); assay type: cell-based, human; conditions: 10 μM minocycline, 24 h time course
Experimental: SupT1 cells were transduced to express GWARA-CD8a spacer-CD28TM-2A-mCherry and aMinoC1 sdAb-CD8 spacer-CD28TM-2A-eGFP. 0.5 × 10^4 cells were cocultured in RPMI (RPMI-1640) supplemented with 10% fetal bovine serum (FBS) and 2 mM GlutaMAX. […] Images were captured using an IncuCyte real-time imager. Time-course images were analyzed using ImageJ (NIH v1.53t) using an image analyzer (20 px^2-infinite size, 0.0–1.0 circularity).

CN(C)c1ccc(O)c2c1C[C@H]1C[C@H]3[C@H](N(C)C)C(O)=C(C(N)=O)C(=O)[C@@]3(O)C(O)=C1C2=O [minocycline]
GWARA-Fc dissociation from immobilized aMinoC1 on small-molecule injection (aMinoC1-peptide complex): acceleration of GWARA-Fc dissociation; also recorded: specifically reversed | peptide-Fc (HWAQA, PWAYS and QWAMM) dissociation from immobilised aMinoC1 on small-molecule injection (aMinoC1-peptide complex): acceleration | blood–brain barrier crossing [1]: can cross the blood–brain barrier | half-life in blood [1]: 12 to 24 h | time of serum concentration peak [1]: 2 to 3 h | cytokine (IFN-γ) reduction [2]: 10 fold | target cell survival [3]: 95% | IL12 release ([4]; day 2, aMinoC1-KDEL construct): up to 150 pg/mL | IL12 release ([4]; day 7, aMinoC1-KDEL construct): ≤ 2.2 µg/mL | cell aggregate formation [5]: random distribution of cells without a clear spatial organization
